One data set has as its target T1, MMP-9 (Homo sapiens, UniProt P14780).
T1 construct: Active MMP-9 enzyme was purchased from Calbiochem; purchased Calbiochem
Kind of data set: Isothermal titration calorimetry with MMP-9. Format: binding. As to the method:
Isothermal titration calorimetry (ITC) was performed with a VP-ITC instrument from MicroCal, hIc. Titrations were carried out by injecting 5 μL of an inhibitor peptide solution (at concentration ranges from 0.5 mM to 2.0 mM) into the 1.4 mL stirred reaction cell. […] Titrations were conducted between 20° C. and 40° C. Typical experimental conditions for the titrations were a 10 second injection period followed by a 240 second delay between injections for a total of 40 injections. Blank titrations of inhibitor peptide into buffer were performed in order to correct for heats of dilution and mixing.
The independent set of multiple binding sites is the most common model for binding experiment evaluations. The analytical solution for the total heat is determined by (Freire et al., 1990):
[formula] where Q is the total heat, V is the cell volume, ΔH is the enthalpy, M is the macromolecule concentration (the binding partner in the cell), n is the binding stoichiometry, L is the ligand concentration (the binding partner in the syringe), and K is the association constant. Data were fit to this model using Origin version 5 (MicroCal, Inc.). Surface Plasmon Resonance
The peptide was dissolved in 20 mM cacodylate (pH 6.8), 20 mM NaCl at a final concentration of 1 mM. MMP-9 was dialyzed into the same buffer at a final concentration of 20 μM. […]

The nature of data set [1]: Viability assay (MTT) in EpiDerm skin model. It is filed as cell-based. To be noted: human, EpiDerm skin model (MatTek), relative to PBS control, average over 500 μM and 2 mM, read-out: total average viability. The source says:
FIG. 16 provides a bar graph showing the percent living cells, relative to a positive control, in a skin model after treatment with two concentrations of peptide. The first sample, treated with phosphate buffered saline (PBS), is the positive control used to establish the cell count representing 100% viability. The second sample is a negative control where cells were exposed to 1% Triton-X100, showing that the assay can detect cell death. […] Data shown represent the average of three tests.
The sample containers were transferred to 6 well plates that contained fresh media. All peptides were dissolved in PBS at a final concentration of 10 mM, and 100 μL each peptide solution was pipetted onto the surface of the Epiderm sample container. Incubation was continued for 12 hours at 37° C., 5% CO2. After the incubation period, the sample containers were washed three times with PBS and the sample containers were transferred to a 24 well plate that contained 300 μL of MTT assay media per well (MTT concentration was 1 mg/mL). The colorimetric assay was allowed to develop for three hours (incubation at 37° C., 5% CO2). Sample containers were then transferred to a 24 well culture plate that contained 2 mL of isopropanol per well. Extraction of the colored precipitate occurred over a period of four hours at room temperature. Absorbance readings were taken at 570 nm and 650 nm for each sample. The percent viability of each sample relative to a PBS control was calculated as: 100×(OD570^sam−OD650^sam)/(OD570^con−OD650^con) (6) Routinely, the peptide sample was assayed in triplicate. Results The sequence of matrix metalloproteinase-2 (SEQ ID NO:14) is provided below to facilitate definition of the various domains and regions in matrix metalloproteinases.

One may read the Kd as the constant that tells how readily two partners part at equilibrium. Read a low Kd as a tighter complex. One may read the viability as the share of living cells, or the viability signal relative to a control.

T1 sequence (P14780 107-707 limits assumed): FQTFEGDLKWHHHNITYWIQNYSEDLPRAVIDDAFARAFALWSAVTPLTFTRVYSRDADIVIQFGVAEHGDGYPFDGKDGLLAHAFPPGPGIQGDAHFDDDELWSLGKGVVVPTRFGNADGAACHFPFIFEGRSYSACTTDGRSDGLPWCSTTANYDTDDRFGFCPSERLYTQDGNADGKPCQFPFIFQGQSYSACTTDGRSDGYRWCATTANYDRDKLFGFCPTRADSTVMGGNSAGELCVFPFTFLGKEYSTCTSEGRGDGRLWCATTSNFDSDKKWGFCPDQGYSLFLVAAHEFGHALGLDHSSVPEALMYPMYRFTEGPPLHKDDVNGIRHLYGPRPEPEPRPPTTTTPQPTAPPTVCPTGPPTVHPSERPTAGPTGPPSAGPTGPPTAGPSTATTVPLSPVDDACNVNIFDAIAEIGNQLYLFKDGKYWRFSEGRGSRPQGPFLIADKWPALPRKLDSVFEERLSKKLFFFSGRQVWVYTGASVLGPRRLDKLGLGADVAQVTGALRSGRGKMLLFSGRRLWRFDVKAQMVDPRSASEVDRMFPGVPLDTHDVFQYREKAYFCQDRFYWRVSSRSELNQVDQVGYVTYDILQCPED

For `CC(C)[C@H](NC(=O)[C@H](CC(=O)O)NC(=O)[C@@H]1CCCN1C(=O)[C@H](CC(N)=O)NC(=O)CNC(=O)[C@H](CS)NC(=O)[C@H](CCCNC(=N)N)NC(=O)[C@@H]1CCCN1)C(=O)N[C@@H](C)C(=O)N[C@@H](CC(N)=O)C(=O)N[C@@H](Cc1ccc(O)cc1)C(=O)N[C@@H](CC(N)=O)C(=O)N[C@@H](Cc1ccccc1)C(=O)N[C@@H](Cc1ccccc1)C(=O)N1CCC[C@H]1C(=O)N[C@@H](CCCNC(=N)N)C(=O)N[C@@H](CCCCN)C(=O)N1CCC[C@H]1C(=O)N[C@@H](CCCCN)C(=O)O` [19-mer], at MMP-9, binding was put at a Kd of 606 nM. Also, the Stoichiometry on MMP-9 (ITC, 1 mM peptide into 20 μM MMP-9, 20 mM cacodylate (pH 6.8), 20 mM NaCl) is 0.975 ± 0.02. The viability at 12 h in data set [1] was 97.6%.

Source of the values: patent publication US7094754B2, “Anti-aging and wound healing compounds” (Kimberly-Clark Worldwide, Inc., priority 2001, dated 2006).
